Measurements: PubChem BioAssay (NCI)
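Values below derive from 48-hour exposures of cells grown in 96-well plates, with endpoints linearly interpolated between the two concentrations bracketing the appropriate inhibition level. GI50 is the concentration that inhibits growth by half. Definition used: TGI = concentration required for complete inhibition of growth.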

Tests used:
Assay in all cases: NCI-60 cell line screen, 48 h
[1] = system: EKVX NSCLC
[2] = system: SK-MEL-28 melanoma
[3] = system: HCT-116 colon
[4] = system: SF-268 CNS
[5] = system: SR leukemia
[6] = system: M14 melanoma
[7] = system: HT29 colon
[8] = system: NCI-H460 lung
[9] = system: U251 CNS
[10] = system: MDA-MB-231 breast

SMILES: CC(=O)c1ccc(NC(=O)/C(Cc2ccccn2)=N/NC(=O)C[N+](C)(C)C)cc1
- TGI [1]: > 100 µM
- TGI [2]: > 100 µM
- TGI [3]: > 100 µM
- TGI [4]: > 100 µM
- TGI [5]: > 100 µM
- TGI [6]: > 100 µM
- TGI [7]: > 100 µM
- TGI [8]: > 100 µM
- TGI [9]: > 100 µM

SMILES: CC(C)=[CH][Sb]([Br])([CH]=C(C)C)([CH]=C(C)C)[CH]=C(C)C
- GI50 [1]: 4.88 µM
- TGI [1]: 88.6 µM
- GI50 [2]: 11.3 µM
- TGI [2]: > 100 µM
- GI50 [3]: 13.9 µM
- TGI [3]: 60.4 µM
- GI50 [4]: 11.7 µM
- TGI [4]: 74.5 µM
- GI50 [5]: 10.9 µM
- TGI [5]: > 100 µM
- GI50 [6]: 10.1 µM
- TGI [6]: 37.8 µM
- GI50 [7]: 15.1 µM
- TGI [7]: > 100 µM
- GI50 [8]: 16.4 µM
- TGI [8]: 54.4 µM
- GI50 [9]: 12.2 µM
- TGI [9]: 79.3 µM

SMILES: Cc1cccc(C(C)(C)C)c1NC(=O)CCc1n[nH]c(=S)o1
- TGI [1]: > 100 µM
- TGI [2]: > 100 µM
- TGI [3]: 33.9 µM
- TGI [4]: > 100 µM
- TGI [6]: > 100 µM
- TGI [7]: > 100 µM
- TGI [8]: > 100 µM
- TGI [9]: > 100 µM

SMILES: O=C1C2=C(CC3C(C2)C3(Br)Br)C(=O)C2=C1CC1C(C2)C1(Br)Br (configuration not stated)
- TGI [1]: > 100 µM
- TGI [2]: > 100 µM
- TGI [3]: > 100 µM
- TGI [4]: > 100 µM
- TGI [5]: > 100 µM
- TGI [6]: > 100 µM
- TGI [7]: > 100 µM
- TGI [8]: > 100 µM
- TGI [9]: > 100 µM

SMILES: CSc1ccc(/C=C2/C[N+](C)(C)C/C(=C/c3ccc(SC)cc3)C2=O)cc1
- TGI [1]: 35.1 µM
- TGI [2]: 20.9 µM
- TGI [4]: 22.7 µM
- TGI [5]: 71.7 µM
- TGI [6]: 28.8 µM
- TGI [9]: 7.92 µM

SMILES: NCCCNCCSSCCCCS(=O)O
- TGI [1]: > 100 µM
- TGI [2]: 55.2 µM
- TGI [3]: 70.2 µM
- TGI [4]: 40.6 µM
- TGI [5]: 29.3 µM
- TGI [6]: 44.2 µM
- TGI [7]: > 100 µM
- TGI [8]: > 100 µM
- TGI [9]: > 100 µM

SMILES: COc1cc(Cc2cc(OC)c(OC)c(OC)c2)ccc1O
- TGI [1]: > 100 µM
- TGI [2]: > 100 µM
- TGI [3]: > 100 µM
- TGI [4]: > 100 µM
- TGI [5]: > 100 µM
- TGI [6]: > 100 µM
- TGI [7]: > 100 µM
- TGI [9]: > 100 µM

SMILES: COc1cc(C(=O)O[C@H](C(N)=O)[C@]2(C)CO2)c2ccccc2c1
- GI50 [1]: 18 µM
- TGI [1]: 50 µM
- GI50 [2]: 15.6 µM
- TGI [2]: 31.5 µM
- GI50 [10]: 13 µM
- TGI [10]: 27.7 µM
- GI50 [3]: 5.21 µM
- TGI [3]: 15.8 µM
- GI50 [4]: 14.2 µM
- TGI [4]: 36.7 µM
- GI50 [6]: 15.1 µM
- TGI [6]: 40 µM
- GI50 [7]: 13.7 µM
- TGI [7]: 27.9 µM
- GI50 [8]: 10.4 µM
- TGI [8]: 57.1 µM
- GI50 [9]: 18.6 µM
- TGI [9]: 35.4 µM

SMILES: CCN(CC)C(=O)C/C(C)=N/NC(=O)c1ccncc1
- TGI [1]: > 100 µM
- TGI [2]: > 100 µM
- TGI [3]: > 100 µM
- TGI [4]: > 100 µM
- TGI [6]: > 100 µM
- TGI [7]: > 100 µM
- TGI [8]: > 100 µM
- TGI [9]: > 100 µM

SMILES: CCOC(=O)NC(=O)c1cn(CCCOC(=O)NCCCCCCNC(=O)OCCCn2c(=O)c(C(=O)NC(=O)OCC)cn(C)c2=O)c(=O)n(C)c1=O
- TGI [2]: > 100 µM
- TGI [3]: > 100 µM
- TGI [4]: > 100 µM
- TGI [6]: > 100 µM
- TGI [7]: > 100 µM
- TGI [8]: > 100 µM
- TGI [9]: > 100 µM

SMILES: COC(=O)C1=C(c2ccc3c(c2)OCO3)O[C@H](c2ccc3c(c2)OCO3)[C@H]1COC(C)=O
- TGI [1]: > 100 µM
- TGI [2]: > 100 µM
- TGI [3]: > 100 µM
- TGI [4]: > 100 µM
- TGI [5]: > 100 µM
- TGI [6]: > 100 µM
- TGI [7]: > 100 µM
- TGI [8]: > 100 µM
- TGI [9]: > 100 µM

SMILES: COC(=O)CSc1n[nH]c(-c2ccc(O)c([N+](=O)[O-])c2)n1
- TGI [1]: > 100 µM
- TGI [2]: > 100 µM
- TGI [3]: > 100 µM
- TGI [4]: > 100 µM
- TGI [5]: > 100 µM
- TGI [6]: > 100 µM
- TGI [7]: > 100 µM
- TGI [8]: > 100 µM
- TGI [9]: > 100 µM

SMILES: COc1ccc(OC)c(/C=C/NC=O)c1
- TGI [1]: > 100 µM
- TGI [2]: > 100 µM
- TGI [3]: > 100 µM
- TGI [4]: > 100 µM
- TGI [5]: > 31.6 µM
- TGI [6]: > 100 µM
- TGI [7]: > 100 µM
- TGI [8]: > 100 µM
- TGI [9]: > 100 µM

SMILES: CCOC(=O)c1c(C)n(Cc2ccc(OC)cc2)c2c1cc(O)c1[nH]c3c(c12)CCCC3
- GI50 [1]: 4.9 µM
- TGI [1]: 52.5 µM
- GI50 [2]: 10.7 µM
- TGI [2]: > 100 µM
- GI50 [10]: 0.617 µM
- TGI [10]: > 100 µM
- GI50 [3]: 2.74 µM
- TGI [3]: 12.1 µM
- GI50 [4]: 3.47 µM
- TGI [4]: 18.7 µM
- GI50 [6]: 11.8 µM
- TGI [6]: 34.2 µM
- GI50 [7]: 12.9 µM
- TGI [7]: > 100 µM
- GI50 [8]: 8.63 µM
- TGI [8]: 27.8 µM
- GI50 [9]: 2.31 µM
- TGI [9]: 5.89 µM

SMILES: CC(C)=CC(=O)N1CCN(C(=O)C=C(C)C)CC1
- TGI [1]: > 100 µM
- TGI [2]: > 100 µM
- TGI [3]: > 100 µM
- TGI [4]: > 100 µM
- TGI [5]: > 100 µM
- TGI [6]: > 100 µM
- TGI [7]: > 100 µM
- TGI [8]: > 100 µM
- TGI [9]: > 100 µM

SMILES: O=S(O)CCCCSSCCCCSSCCCCS(=O)O
- TGI [1]: 66.3 µM
- TGI [2]: > 100 µM
- TGI [3]: > 100 µM
- TGI [4]: > 100 µM
- TGI [6]: 26.5 µM
- TGI [8]: > 100 µM
- TGI [9]: > 100 µM

SMILES: COc1cc2c3c(n(CCCCl)c(=O)c2cc1OC)-c1ccccc1C3=O
- GI50 [1]: > 100 µM
- TGI [1]: > 100 µM
- GI50 [10]: 37 µM
- TGI [10]: > 100 µM
- GI50 [3]: 2.46 µM
- TGI [3]: > 100 µM
- GI50 [4]: > 100 µM
- TGI [4]: > 100 µM
- GI50 [6]: 5.96 µM
- TGI [6]: > 100 µM
- GI50 [8]: 3.66 µM
- TGI [8]: > 100 µM
- GI50 [9]: 11.9 µM
- TGI [9]: > 100 µM

SMILES: CCCCCCCCCCCCCCCCOP(=O)(O)Oc1ccc(/C=C\c2ccc(OP(=O)(O)OCCCCCCCCCCCCCCCC)cc2)cc1
- TGI [1]: > 100 µM
- TGI [2]: > 100 µM
- TGI [3]: > 100 µM
- TGI [4]: > 100 µM
- TGI [5]: 47.1 µM
- TGI [6]: > 100 µM
- TGI [7]: > 100 µM
- TGI [8]: > 100 µM
- TGI [9]: > 100 µM

SMILES: CCCCNC(=O)NS(=O)(=O)c1ccc(N2N=C(c3ccc(C)cc3C)CC2c2ccc(N(C)C)cc2)cc1 (configuration not stated)
- GI50 [2]: 2.56 µM
- TGI [2]: 7.96 µM
- GI50 [10]: 5.36 µM
- TGI [10]: 35.6 µM
- GI50 [3]: 3.86 µM
- TGI [3]: > 100 µM
- GI50 [4]: 5.73 µM
- TGI [4]: > 100 µM
- GI50 [6]: 4.06 µM
- TGI [6]: > 100 µM
- GI50 [7]: 4.2 µM
- TGI [7]: 19.9 µM
- GI50 [8]: 3.33 µM
- TGI [8]: 15.9 µM
- GI50 [9]: 3.59 µM
- TGI [9]: 27.6 µM

SMILES: COc1ccc(C(=O)O)c(Cc2cccc3ccccc23)c1
- TGI [1]: > 100 µM
- TGI [2]: > 100 µM
- TGI [3]: > 100 µM
- TGI [4]: > 100 µM
- TGI [5]: > 100 µM
- TGI [6]: > 100 µM
- TGI [7]: > 100 µM
- TGI [8]: > 100 µM
- TGI [9]: > 100 µM

SMILES: CNC=O.[O]=[Ge].[O]=[Ge].[O]=[Ge].[O]=[Ge][OH].[O]=[Ge][OH]
- TGI [1]: > 100 µM
- TGI [2]: > 100 µM
- TGI [3]: > 100 µM
- TGI [4]: > 100 µM
- TGI [5]: > 100 µM
- TGI [6]: > 100 µM
- TGI [7]: > 100 µM
- TGI [8]: > 100 µM
